COc1cc(-c2cc(=O)c3c(O)cc(O)cc3o2)cc(OC)c1O
solubility (mole fraction)
Details | 288.15 K | 293.16 K | 298.15 K | 303.15 K | 308.16 K | 313.18 K | 318.15 K
in ethanol | 5.94e-06 | 8.85e-06 | 1.26e-05 | 1.72e-05 | 2.19e-05 | 3e-05 | 3.83e-05
in water | 5e-10 | 1e-09 | 1.4e-09 | 2.1e-09 | 3.5e-09 | 5.6e-09 | 8.1e-09

From BigSolDB 2.1
